Experimental data: the NIST ThermoML archive (doi:10.1021/je500458e)

Assay: mn = molality of the nth substance listed, in mol/kg
Conditions: 298.15 K, Liquid

O=c1[nH]cnc2c1ncn2[C@H]1C[C@H](O)[C@@H](CO)O1 [2'-deoxyinosine] + O
Conditions	speed of sound [m/s]
100 kPa, m1 = 0.02199	1498.1
100 kPa, m1 = 0.02301	1498.2
100 kPa, m1 = 0.024	1498.3
100 kPa, m1 = 0.02493	1498.3
100 kPa, m1 = 0.02599	1498.4
100 kPa, m1 = 0.02701	1498.5
100 kPa, m1 = 0.02813	1498.6
100 kPa, m1 = 0.02896	1498.6
100 kPa, m1 = 0.02994	1498.7
10000 kPa, m1 = 0.02283	1514.8
10000 kPa, m1 = 0.0239	1514.9
10000 kPa, m1 = 0.02481	1514.9
10000 kPa, m1 = 0.02661	1515
10000 kPa, m1 = 0.02749	1515.1
10000 kPa, m1 = 0.02755	1515.1
10000 kPa, m1 = 0.02877	1515.2
10000 kPa, m1 = 0.02944	1515.2
20000 kPa, m1 = 0.02283	1531.6
20000 kPa, m1 = 0.0239	1531.7
20000 kPa, m1 = 0.02481	1531.7
20000 kPa, m1 = 0.02661	1531.9
20000 kPa, m1 = 0.02749	1531.9
20000 kPa, m1 = 0.02755	1531.9
20000 kPa, m1 = 0.02877	1532
20000 kPa, m1 = 0.02944	1532
40000 kPa, m1 = 0.02283	1565.2
40000 kPa, m1 = 0.0239	1565.3
40000 kPa, m1 = 0.02481	1565.3
40000 kPa, m1 = 0.02661	1565.5
40000 kPa, m1 = 0.02749	1565.5
40000 kPa, m1 = 0.02755	1565.5
40000 kPa, m1 = 0.02877	1565.6
40000 kPa, m1 = 0.02944	1565.6
60000 kPa, m1 = 0.02283	1598.7
60000 kPa, m1 = 0.0239	1598.8
60000 kPa, m1 = 0.02481	1598.9
60000 kPa, m1 = 0.02661	1599
60000 kPa, m1 = 0.02749	1599
60000 kPa, m1 = 0.02755	1599
60000 kPa, m1 = 0.02877	1599.1
60000 kPa, m1 = 0.02944	1599.2
80000 kPa, m1 = 0.02283	1632.1
80000 kPa, m1 = 0.0239	1632.1
80000 kPa, m1 = 0.02481	1632.2
80000 kPa, m1 = 0.02661	1632.3
80000 kPa, m1 = 0.02749	1632.4
80000 kPa, m1 = 0.02755	1632.4
80000 kPa, m1 = 0.02877	1632.5
80000 kPa, m1 = 0.02944	1632.5
100000 kPa, m1 = 0.02283	1665.2
100000 kPa, m1 = 0.0239	1665.3
100000 kPa, m1 = 0.02481	1665.3
100000 kPa, m1 = 0.02661	1665.5
100000 kPa, m1 = 0.02749	1665.5
100000 kPa, m1 = 0.02755	1665.5
100000 kPa, m1 = 0.02877	1665.6
100000 kPa, m1 = 0.02944	1665.6
